Test results taken from patent publication US20090232735A1, “USE OF FRUCTOSE-BASED THERAPIES FOR THE TREATMENT OF CANCER” (CEDARS-SINAI MEDICAL CENTER, priority 2005, published 2009).
“Also recorded” adds a separate entry of the source.

System: PANC-1 pancreatic cancer cells
Assay: PANC-1 pancreatic cancer cell proliferation (MTS assay)
Assay type: cell-based, human
Conditions: oxythiamine 0.5 mM, 72 h, MTS
Method: FIG. 13 depicts higher proliferation rates in pancreatic cancer cells in fructose (5.5 mM) than glucose (5.5 mM) containing medium in accordance with an embodiment of the present invention. PANC-1 cells were pre-incubated in 2 mM glucose, after which they were plated in 5.5 mM fructose or glucose for times between 12-72 h, after which proliferative rates were measured using an MTS assay. Proliferative rates are expressed as the percentage difference between cells grown in 5.5 mM fructose versus 5.5 mM glucose. p<0.01 for times>48 h.
FIG. 14 depicts proliferation rates of pancreatic cells in different fructose or glucose concentrations in accordance with an embodiment of the present invention. PANC-1 cells were plated in a range of fructose or glucose concentrations (5-25 mM) for 72 h, after which proliferative rates were measured using an MTS assay. *, p<0.05 for concentrations between 5-25 mM fructose versus glucose.
FIG. 17 depicts cell proliferation regardless of co-existent glucose concentration in accordance with an embodiment of the present invention. PANC-1 cells were pre-incubated in 2 mM glucose prior to treatment with a range of concentrations (0-15 mM) mixed with a range of fructose concentrations (0-15 mM) for 72 h. PANC-1 cell proliferative rates were then measured using the MTS assay (absorbance in arbitrary units).
FIG. 35 depicts inhibition of pancreatic cancer PANC-1 cell proliferation by incubation with the transketolase inhibitor, oxythiamine (0.5-2 mM) for 72 h in accordance with an embodiment of the present invention. Proliferative rates were measured using the MTS proliferation assay.
Standard media for maintenance cancer cell line culture, including pancreatic cancer cells such as PANC-1 cells contain either low—(5-7 mM), or high—(12-25 mM) glucose concentrations. Clearly, apart from the setting of hyperglycemia, as in patients with diabetes, the glucose concentrations in which pancreatic cancer cells are maintained in vitro are much higher than normal physiological conditions, which range between 2-5 mM glucose. […] Therefore, the inventors first pre-treated the pancreatic cancer cells overnight in standard DMEM medium containing low physiological glucose concentrations (2 mM glucose), and standard 10% fetal bovine serum. The pancreatic cancer cells were then incubated for times between 12, and 96 hours in standard DMEM medium containing 10% fetal bovine serum, and 5.5 mM glucose or 5.5 mM fructose. Proliferative rates were then measured in replicate (minimum of 6) aliquot wells of the pancreatic cancer cells, and the change (expressed as percent increase) in proliferative rates compared between cells grown in glucose, or fructose containing medium.
This first result intrigued the inventors, but given there is little documentation regarding physiological fructose concentrations, the inventors first considered that the “apparent” pro-proliferative effects of fructose were simply a consequence of the highly stylized in vitro experimental conditions, and that if the pancreatic cancer cells were cultured in higher glucose concentrations, this would result in similar proliferative rates to those the inventors observed following culture in 5.5 mM fructose. Therefore, in the next experiments, the inventors compared proliferative rates of the PANC-1 pancreatic cancer cells following culture for 72 h in a range of fructose, and glucose concentrations (2-25 mM). This timepoint was chosen as the inventors had seen maximal pancreatic cancer cell proliferation in 5.5 mM fructose at 72 h. […] While not wishing to be bound by any particular theory, the inventors believe that this latter finding may be because the PANC-1 cells are proliferating at close to maximal capacity by 72 h, once they are exposed to comparatively low fructose concentrations (5 mM). MTS assay was employed to measure pancreatic cancer cell proliferative rates, which utilizes mitochondrial oxidation to quantify cell proliferation. […]

For `Cc1ncc(C[n+]2csc(CCO)c2C)c(=O)[nH]1` [oxythiamine, reference compound], the “fructose-mediated increase in pancreatic cancer cell proliferation” value (5.5 mM fructose) was “virtually abolished; also recorded: almost completely abrogate” and the “glucose-induced and fructose-induced PANC-1 proliferation” value was “inhibited”.
